Results as given in patent US20240108002A1, “1-AMINO-1-CYCLOPROPANECARBOXYLIC ACID AND PROHYDROJASMON MIXTURES AND USES THEREOF” (Valent BioSciences LLC, priority 2022, published 2024).

System: Imperial Gala apples
Assay: Apple coloration in Imperial Gala variety, percent red pixel area after foliar spray
Format: in vivo
Conditions: for Average % Red Pixel Area: foliar spray, 34 hours post spray; for Fold Change From control: vs 0.05% Regulaid control
Procedure: 10 sets of unripened apples, Imperial Gala variety, harvested three weeks before the normal harvest date, were each foliar sprayed with either 1) 0.05% Regulaid® as a control, 2) 50 ppm prohydrojasmon, 3) 300 ppm prohydrojasmon, 4) 50 ppm ACC, 5) 300 ppm ACC or 6) a mixture of 50 ppm prohydrojasmon and 50 ppm ACC or 7) a mixture of 300 ppm prohydrojasmon and 300 ppm ACC. 34 hours post spray application percent red pixel area (shaded) was measured. Percent red pixel area is an indication of the coloration of the apple fruit.
To determine if the mixture provided unexpected results, the observed combined efficacy (“OCE”) was divided by the expected combined efficacy (“ECE”) wherein the ECE is calculated by the Abbott method: […]
wherein ECE is the expected combined efficacy and in which A and B are the fold change from control given by the single active ingredients. If the ratio between the OCE of the mixture and the ECE of the mixture is greater than 1, then greater than expected interactions are present in the mixture. (Gisi, Synergistic Interaction of Fungicides in Mixtures, The American Phytopathological Society, 86:11, 1273-1279,1996).

Compound	Average % Red Pixel Area (single active at 50 ppm)	Fold Change From control (single active at 50 ppm)	Average % Red Pixel Area (single active at 300 ppm)	Fold Change From control (single active at 300 ppm)
NC1(C(=O)O)CC1 [ACC, 1-amino-1-cyclopropanecarboxylic acid]	7.02%	0.03	4.66%	−0.31
CCCCCC1C(=O)CCC1CC(=O)OCCC (centres unmarked) [prohydrojasmon]	15.84%	1.33	21.03%	2.09
